CNC(=O)c1cc(Oc2ccc(NC(=O)Nc3ccc(Cl)c(C(F)(F)F)c3)cc2)ccn1
solubility (mole fraction)
Settings	273.15 K	278.15 K	283.15 K	288.15 K	293.15 K	298.15 K	303.15 K	308.15 K	313.15 K
in 2-butanone	0.00666	0.00725	0.0079	0.00856	0.00929	0.0101	0.0111	0.0122	0.0133
in acetone	0.00227	0.00259	0.00293	0.00329	0.00369	0.00405	0.00448	0.00488	0.00558
in acetonitrile	0.000162	0.000194	0.000239	0.000282	0.000334	0.000396	0.000476	0.000571	0.000678
in cyclohexanone	0.0114	0.0124	0.0138	0.0153	0.0169	0.0189	0.0209	0.0229	0.0251
in ethanol	0.000645	0.000727	0.000817	0.000922	0.00103	0.00114	0.00127	0.0014	0.00155
in ethyl acetate	0.000835	0.001	0.00119	0.00142	0.00165	0.00192	0.00222	0.00255	0.00293
in isobutanol	0.000433	0.000498	0.00058	0.000661	0.000755	0.000854	0.000972	0.0011	0.00126
in isopropanol	0.000498	0.000573	0.000665	0.000761	0.000866	0.000975	0.0011	0.00123	0.00138
in methanol	0.000385	0.000422	0.000459	0.000509	0.000564	0.000628	0.000701	0.000769	0.000848
in n-butanol	0.000726	0.000817	0.000919	0.00103	0.00116	0.0013	0.00145	0.00162	0.00182
in n-propanol	0.000756	0.00086	0.000978	0.00111	0.00126	0.00143	0.00162	0.00183	0.00207
in toluene	0.00197	0.00218	0.00234	0.00255	0.00282	0.00313	0.00352	0.00382	0.00428
